Where two headings read alike, the source gives them in different places.
How the values were obtained:
[1] = assay type: in vivo, human; details: + means a rise, − a fall
Experimental: In these patients, and also in a further series of patients, the levels of DGLA, AA, EPA and DHA were measured in human red cells before starting treatment and after 12 weeks. As expected there was a dose-related rise in EPA which was greater the greater the dose. It was also expected that there would be a progressive decline in AA, the larger the EPA dose, the greater the fall in AA.

[2] = test system: schizophrenia in patients; experiment: Trial of placebo and three doses of EPA in schizophrenia patients also taking clozapine, assessed by PANSS at baseline and 12 weeks; assay type: in vivo, human
Experimental: A trial was conducted of the administration of a placebo and three different doses of EPA, 1 g, 2 g and 4 g/day in the treatment of schizophrenia in patients who were also taking the antischizophrenic drug clozapine. […] 31 patents were entered into the study and followed for 12 weeks. They were assessed at baseline and 12 weeks using the Positive and Negative Symptom Scale for Schizophrenia (PANSS). Placebo produced a small effect, 1 g/day produced a larger effect, 2 g/day produced a large effect of 26.0% compared to the usual 15-20% improvements on this scale generated by existing drugs for schizophrenia.

[3] = test system: patients with schizophrenia; experiment: Pilot study of AA alone in five patients with schizophrenia; assay type: in vivo, human; details: AA given alone
Excerpt: This interpretation was supported by a pilot study in which AA itself was given to five patients with schizophrenia. […] The administration of AA, without EPA to inhibit phospholipases, may lead to increased formation of eicosanoids rather than to incorporation of AA into phospholipids.

[4] = test system: patients with schizophrenia; experiment: AA given to two patients who had already been taking EPA; assay type: in vivo, human; details: AA 1 g/day added in two patients already taking 2 g/day EPA for 3 months
Excerpt: The conclusion to be drawn from these studies is that EPA is desirable, not in itself but because it raises the AA level in membrane phospholipids. High doses of EPA, far from being valuable in themselves, may be undesirable because they lead to excessive loss of AA from membranes. The way to get around this issue, and to boost the clearly desirable effects of EPA, is to keep to relatively low doses of EPA, but also to boost the level of AA by administering the EPA with either AA or one of its precursors, DGLA or gamma-linolenic acid GLA.

CC/C=C\C/C=C\C/C=C\C/C=C\C/C=C\CCCC(=O)OCC [ethyl eicosapentaenoate]
Change from baseline to 12 weeks in red cell concentration of AA ([1]; 1 g/d): +2.7 μg/g | Change from baseline to 12 weeks in red cell concentration of AA ([1]; 2 g/d): +29.4 μg/g | Change from baseline to 12 weeks in red cell concentration of AA ([1]; 4 g/d): -26.5 µg/g | Percentage improvement from baseline to 12 weeks on PANSS ([2]; 1 g/day): 18.3% | Percentage improvement from baseline to 12 weeks on PANSS ([2]; 2 g/day): 26.0% | Percentage improvement from baseline to 12 weeks on PANSS ([2]; 4 g/day): 16.3%

CCCCC/C=C\C/C=C\C/C=C\C/C=C\CCCC(=O)O [AA, arachidonic acid]
Condition of patients with schizophrenia [3]: their condition deteriorated | Condition of patients with schizophrenia [4]: substantial further improvement

CC/C=C\C/C=C\C/C=C\C/C=C\C/C=C\CCCC(=O)O [EPA, eicosapentaenoic acid]
Percentage improvement from baseline to 12 weeks on PANSS ([2]; 2 g/day): 26.0%
